Test results: ChEMBL document CHEMBL1201862, “PubChem BioAssay data set” (2004)
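Where inhibition never reached the appropriate level, the endpoint shown equals the highest concentration tested. Otherwise, values were interpolated linearly from a five-concentration, 48-hour dose response in 96-well plates. The concentration for 50% growth inhibition is given as GI50.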 Calls of active or inactive are those of the source. No stated cut-off is given here; in the data, active = GI50 up to about 1.1 µM and inactive = higher.

Key:
Assay in all cases: NCI anticancer screen, dose series, 48 h
[1] = system: SNB-75
[2] = system: U-251
[3] = system: SR
[4] = system: MDA-N
[5] = system: OVCAR-5
[6] = system: TK-10
[7] = system: HOP-62
[8] = system: RXF 393
[9] = system: DU-145
[10] = system: HL-60
[11] = system: Hs-578T
[12] = system: KM12
[13] = system: SF-268
[14] = system: M14
[15] = system: COLO 205
[16] = system: RPMI-8226
[17] = system: SN12C
[18] = system: EKVX
[19] = system: ACHN
[20] = system: MCF7
[21] = system: K562
[22] = system: HCT-116
[23] = system: NCI-H460
[24] = system: MOLT-4
[25] = system: SW-620
[26] = system: UACC-257
[27] = system: HCC 2998
[28] = system: SF-539
[29] = system: SK-OV-3
[30] = system: SF-295
[31] = system: UO-31
[32] = system: MDA-MB-435
[33] = system: SK-MEL-28
[34] = system: SK-MEL-5
[35] = system: SNB-19
[36] = system: IGROV-1
[37] = system: 786-0
[38] = system: CAKI-1
[39] = system: HT-29
[40] = system: T47D
[41] = system: SK-MEL-2
[42] = system: PC-3
[43] = system: UACC-62
[44] = system: MDA-MB-231
[45] = system: HCT-15
[46] = system: OVCAR-8
[47] = system: NCI/ADR-RES
[48] = system: A549
[49] = system: OVCAR-4
[50] = system: CCRF-CEM
[51] = system: NCI-H522
[52] = system: Malme-3M
[53] = system: LOX IMVI
[54] = system: NCI-H23
[55] = system: BT-549
[56] = system: NCI-H226
[57] = system: HOP-92
[58] = system: OVCAR-3

Question: C[C@@H]1C(=O)O[C@@H]2C[C@@]1(C)[C@@H]1C(=O)C3(O)OC14C2(C)OC(=O)[C@@]4(O)CCC1C3C(O)C=C2CC=CC(=O)[C@@]21C (some centres not stated) was tested. Which GI50 [1] did it give?
Answer: The GI50 was 15.7 µM (inactive).

Question: And the GI50 [2]?
Answer: The GI50 was 30.8 µM (inactive).

Question: And the GI50 [3]?
Answer: The GI50 was 18.2 µM (inactive).

Question: What about the GI50 [4] of the same compound?
Answer: The GI50 was 28.9 µM (inactive).

Question: And the GI50 [5]?
Answer: Its GI50 is 25.5 µM (inactive).

Question: And the GI50 [6]?
Answer: Its GI50 is 36.9 µM (inactive).

Question: And the GI50 [7]?
Answer: Its GI50 is 63.5 µM (inactive).

Question: And the GI50 [8]?
Answer: The GI50 was 13.8 µM (inactive).

Question: What about the GI50 [9] of the same compound?
Answer: Its GI50 is 30.3 µM (inactive).

Question: And the GI50 [10]?
Answer: The GI50 was 13.4 µM (inactive).

Question: What about the GI50 [11] of the same compound?
Answer: The GI50 was 20.9 µM (inactive).

Question: And the GI50 [12]?
Answer: Its GI50 is 26.6 µM (inactive).

Question: What about the GI50 [13] of the same compound?
Answer: Its GI50 is 26.7 µM (inactive).

Question: What about the GI50 [14] of the same compound?
Answer: The GI50 was 21.6 µM (inactive).

Question: What about the GI50 [15] of the same compound?
Answer: The GI50 was 34 µM (inactive).

Question: What about the GI50 [16] of the same compound?
Answer: The GI50 was 19.7 µM (inactive).

Question: What about the GI50 [17] of the same compound?
Answer: The GI50 was 41.2 µM (inactive).

Question: What about the GI50 [18] of the same compound?
Answer: The GI50 was 40.6 µM (inactive).

Question: What about the GI50 [19] of the same compound?
Answer: Its GI50 is 53.6 µM (inactive).

Question: And the GI50 [20]?
Answer: Its GI50 is 36.3 µM (inactive).

Question: And the GI50 [21]?
Answer: The GI50 was 23.9 µM (inactive).

Question: What about the GI50 [22] of the same compound?
Answer: Its GI50 is 20.7 µM (inactive).

Question: And the GI50 [23]?
Answer: The GI50 was 29.9 µM (inactive).

Question: What about the GI50 [24] of the same compound?
Answer: The GI50 was 20.7 µM (inactive).

Question: What about the GI50 [25] of the same compound?
Answer: The GI50 was 40.2 µM (inactive).

Question: What about the GI50 [26] of the same compound?
Answer: The GI50 was 31 µM (inactive).

Question: And the GI50 [27]?
Answer: Its GI50 is 39.1 µM (inactive).

Question: What about the GI50 [28] of the same compound?
Answer: The GI50 was 25.3 µM (inactive).

Question: What about the GI50 [29] of the same compound?
Answer: The GI50 was 47 µM (inactive).

Question: And the GI50 [30]?
Answer: Its GI50 is 33.3 µM (inactive).

Question: And the GI50 [31]?
Answer: The GI50 was 22.5 µM (inactive).

Question: What about the GI50 [32] of the same compound?
Answer: The GI50 was 20.4 µM (inactive).

Question: And the GI50 [33]?
Answer: Its GI50 is 22.2 µM (inactive).

Question: And the GI50 [34]?
Answer: Its GI50 is 33 µM (inactive).

Question: And the GI50 [35]?
Answer: The GI50 was 3.24 µM (inactive).

Question: What about the GI50 [36] of the same compound?
Answer: Its GI50 is 42.3 µM (inactive).

Question: And the GI50 [37]?
Answer: Its GI50 is 33.1 µM (inactive).

Question: And the GI50 [38]?
Answer: Its GI50 is 21.3 µM (inactive).

Question: And the GI50 [39]?
Answer: Its GI50 is 34 µM (inactive).

Question: What about the GI50 [40] of the same compound?
Answer: The GI50 was 31.3 µM (inactive).

Question: And the GI50 [41]?
Answer: Its GI50 is 17.9 µM (inactive).

Question: And the GI50 [42]?
Answer: Its GI50 is 36 µM (inactive).

Question: And the GI50 [43]?
Answer: Its GI50 is 22 µM (inactive).

Question: What about the GI50 [44] of the same compound?
Answer: The GI50 was 28.8 µM (inactive).

Question: And the GI50 [45]?
Answer: Its GI50 is 34.4 µM.

Question: What about the GI50 [46] of the same compound?
Answer: The GI50 was 31.3 µM (inactive).

Question: And the GI50 [47]?
Answer: The GI50 was > 100 µM (inactive).

Question: What about the GI50 [48] of the same compound?
Answer: Its GI50 is 40.8 µM (inactive).

Question: And the GI50 [49]?
Answer: The GI50 was 27.8 µM (inactive).

Question: What about the GI50 [50] of the same compound?
Answer: Its GI50 is 13.6 µM (inactive).

Question: Which GI50 [1] does the source give for Cn1c(S)nnc1CNc1ccc(-c2nnc(S)n2C)cc1 here?
Answer: The GI50 was > 100 µM (inactive).

Question: What about the GI50 [2] of the same compound?
Answer: Its GI50 is > 100 µM (inactive).

Question: What about the GI50 [4] of the same compound?
Answer: The GI50 was > 100 µM (inactive).

Question: And the GI50 [5]?
Answer: The GI50 was > 100 µM (inactive).

Question: What about the GI50 [6] of the same compound?
Answer: Its GI50 is > 100 µM (inactive).

Question: And the GI50 [7]?
Answer: The GI50 was > 100 µM (inactive).

Question: And the GI50 [9]?
Answer: The GI50 was > 100 µM (inactive).

Question: What about the GI50 [10] of the same compound?
Answer: Its GI50 is > 100 µM (inactive).

Question: What about the GI50 [12] of the same compound?
Answer: The GI50 was > 100 µM (inactive).

Question: What about the GI50 [51] of the same compound?
Answer: The GI50 was > 100 µM (inactive).

Question: And the GI50 [13]?
Answer: The GI50 was > 100 µM (inactive).

Question: And the GI50 [14]?
Answer: The GI50 was > 100 µM (inactive).

Question: And the GI50 [15]?
Answer: The GI50 was > 100 µM (inactive).

Question: And the GI50 [52]?
Answer: The GI50 was > 100 µM (inactive).

Question: What about the GI50 [17] of the same compound?
Answer: The GI50 was > 100 µM (inactive).

Question: What about the GI50 [53] of the same compound?
Answer: Its GI50 is > 100 µM (inactive).

Question: What about the GI50 [18] of the same compound?
Answer: The GI50 was > 100 µM (inactive).

Question: And the GI50 [54]?
Answer: Its GI50 is > 100 µM (inactive).

Question: What about the GI50 [19] of the same compound?
Answer: Its GI50 is > 100 µM (inactive).

Question: And the GI50 [20]?
Answer: Its GI50 is > 100 µM (inactive).

Question: What about the GI50 [21] of the same compound?
Answer: Its GI50 is > 100 µM (inactive).

Question: What about the GI50 [22] of the same compound?
Answer: Its GI50 is > 100 µM (inactive).

Question: And the GI50 [23]?
Answer: Its GI50 is > 100 µM (inactive).

Question: What about the GI50 [24] of the same compound?
Answer: The GI50 was > 100 µM (inactive).

Question: What about the GI50 [25] of the same compound?
Answer: Its GI50 is > 100 µM (inactive).

Question: What about the GI50 [55] of the same compound?
Answer: Its GI50 is > 100 µM (inactive).

Question: And the GI50 [26]?
Answer: The GI50 was > 100 µM (inactive).

Question: And the GI50 [27]?
Answer: The GI50 was > 100 µM (inactive).

Question: What about the GI50 [28] of the same compound?
Answer: The GI50 was > 100 µM (inactive).

Question: And the GI50 [29]?
Answer: Its GI50 is > 100 µM (inactive).

Question: What about the GI50 [30] of the same compound?
Answer: The GI50 was > 100 µM (inactive).

Question: What about the GI50 [31] of the same compound?
Answer: Its GI50 is > 100 µM (inactive).

Question: And the GI50 [32]?
Answer: The GI50 was > 100 µM (inactive).

Question: What about the GI50 [33] of the same compound?
Answer: The GI50 was > 100 µM (inactive).

Question: And the GI50 [56]?
Answer: The GI50 was > 100 µM (inactive).

Question: And the GI50 [34]?
Answer: Its GI50 is > 100 µM (inactive).

Question: And the GI50 [35]?
Answer: Its GI50 is > 100 µM (inactive).

Question: What about the GI50 [36] of the same compound?
Answer: Its GI50 is > 100 µM (inactive).

Question: What about the GI50 [37] of the same compound?
Answer: The GI50 was > 100 µM (inactive).

Question: What about the GI50 [38] of the same compound?
Answer: The GI50 was > 100 µM (inactive).

Question: And the GI50 [39]?
Answer: Its GI50 is > 100 µM (inactive).

Question: And the GI50 [57]?
Answer: The GI50 was > 100 µM (inactive).

Question: And the GI50 [41]?
Answer: The GI50 was > 100 µM (inactive).

Question: What about the GI50 [58] of the same compound?
Answer: Its GI50 is > 100 µM (inactive).

Question: What about the GI50 [42] of the same compound?
Answer: The GI50 was > 100 µM (inactive).

Question: And the GI50 [44]?
Answer: The GI50 was > 100 µM (inactive).

Question: And the GI50 [45]?
Answer: The GI50 was > 100 µM.

Question: What about the GI50 [46] of the same compound?
Answer: The GI50 was > 100 µM (inactive).

Question: And the GI50 [47]?
Answer: Its GI50 is > 100 µM (inactive).

Question: And the GI50 [48]?
Answer: Its GI50 is > 100 µM (inactive).

Question: And the GI50 [49]?
Answer: The GI50 was > 100 µM (inactive).

Question: And the GI50 [50]?
Answer: Its GI50 is > 100 µM (inactive).
